From US20210261621A1, “Preparation of Dilipid Polymixins and Use Thereof as Antimicrobial Adjuvants” (priority 2018, published 2021)
Values after ≈ are worked out from the molar mass of the structure shown. Like-named read-outs stand apart in the source and are kept apart here. Positions of bridges follow the written chain, without caps; N, C: chain ends. Non-standard residues stand in square brackets, D forms with d. Residues, ends and D or L forms follow the SMILES beside them. *: point of attachment. Benzoyl(4-Ph) = O=C(c1ccc(-c2ccccc2)cc1)*; Octanoyl = CCCCCCCC(=O)*; Dab = NCC[C@H](N)C(=O)O

Legend:
E. faecalis ATCC 29212 = format: cell-based
Text: (§1) Bacterial strains were either obtained from the American Type Culture Collection (ATCC), Canadian National Intensive Care Unit (CAN-ICU) surveillance study or the Canadian Ward Surveillance (CANWARD) study. Strains from both CAN-ICU and CANWARD are isolates recovered from patients diagnosed with a presumed infectious disease that were admitted in a participating medical center across Canada. Efflux-deficient strain PAO200 (lacking MexAB-OprM efflux system) and PA0750 (lacking MexAB-OprM, MexCD-OprJ, MexEF-OprN, MexJK and MexXY efflux systems, and the outer membrane protein OpmH) were kindly gifted by Dr. Ayush Kumar (University of Manitoba).
(§2) The in vitro antibacterial activity of the compounds studied were assessed by broth microdilution susceptibility testing following CLSI guidelines. Bacterial cultures were grown overnight prior to the assay. The overnight grown cultures were diluted in saline to 0.5 McFarland turbidity, followed by 1:50 dilution in Mueller-Hinton broth (MHB) for inoculation to a final concentration of approximately 5×10^5 colony forming units/mL. Testing was performed on 96-well plates where the tested compounds were 2-fold serially diluted in MHB and incubated with equal volumes of bacterial inoculum at 37° C. for 18 h. […] Wells containing MHB with or without bacterial cells were used as positive or negative control, respectively.

E. faecium ATCC 27270 = format: cell-based
Text: as §1, §2

S. pneumoniae ATCC 49619 = format: cell-based
Text: as §1, §2

P. aeruginosa PA095 = format: cell-based, Pseudomonas aeruginosa
Text: as §1, §2

P. aeruginosa PA101885 = format: cell-based, Pseudomonas aeruginosa
Text: as §1, §2

[1] = tested on: P. aeruginosa PA264-104354; format: cell-based, Pseudomonas aeruginosa
Text: as §1, §2

P. aeruginosa ATCC 27853 = format: cell-based, Pseudomonas aeruginosa
Text: as §1, §2

[2] = tested on: P. aeruginosa CAN-ICU 62308; format: cell-based, Pseudomonas aeruginosa
Text: as §1, §2

P. aeruginosa PA100036 = format: cell-based, Pseudomonas aeruginosa
Text: as §1, §2

[3] = tested on: P. aeruginosa PA259-96918; format: cell-based, Pseudomonas aeruginosa
Text: as §1, §2

[4] = tested on: P. aeruginosa PA260-97103; format: cell-based, Pseudomonas aeruginosa
Text: as §1, §2

P. aeruginosa PAO1 = format: cell-based, Pseudomonas aeruginosa
Text: as §1, §2

[5] = tested on: P. aeruginosa PA262-101856; format: cell-based, Pseudomonas aeruginosa
Text: as §1, §2

K. pneumoniae 113254 = format: cell-based, Klebsiella pneumoniae; conditions: 113254
Description: (§3) We then addressed the possibility for the dilipid polymyxins to display enhanced antibacterial activity against colistin-resistant Gram-negative pathogens. […] The extended hydrophobic region of the dilipid polymyxin may provide additional hydrophobic interactions to the outer membrane of colistin-resistant organisms. Eight MDR colistin-resistant Gram-negative bacterial isolates were tested, including two E. coli isolates harboring the mcr-1 plasmid-encoded polymyxin resistance gene. We found no difference between the antibacterial activity of dilipid polymyxins and colistin against colistin-resistant Gram-negative bacteria (Table 3).
as §1, §2

K. pneumoniae 113250 = format: cell-based, Klebsiella pneumoniae; conditions: 113250
Description: as §3, §1, §2

MSSE CANWARD-2008 81388 = format: cell-based, Staphylococcus epidermidis; conditions: for MIC: MSSE CANWARD-2008 81388 (methicillin-susceptible Staphylococcus epidermidis); for fold better MIC than colistin: methicillin-susceptible Staphylococcus epidermidis
Text: as §1, §2

E. coli 94474 = format: cell-based, Escherichia coli; conditions: 94474
Description: as §3, §1, §2

E. coli 94393 = format: cell-based, Escherichia coli; conditions: 94393
Description: as §3, §1, §2

A. baumannii 92247 = format: cell-based, Acinetobacter baumannii; conditions: 92247
Description: as §3, §1, §2

P. aeruginosa 101243 = format: cell-based, Pseudomonas aeruginosa; conditions: 101243
Description: as §3, §1, §2

P. aeruginosa 91433 = format: cell-based, Pseudomonas aeruginosa; conditions: 91433
Description: as §3, §1, §2

P. aeruginosa 114228 = format: cell-based, Pseudomonas aeruginosa; conditions: 114228
Description: as §3, §1, §2

MRSA ATCC 33592 = format: cell-based, Staphylococcus aureus; conditions: for fold better MIC than colistin: methicillin-resistant Staphylococcus aureus
Text: as §1, §2

S. aureus ATCC 29213 = format: cell-based, Staphylococcus aureus
Text: as §1, §2

A. baumannii AB027 = format: cell-based, Acinetobacter baumannii
Text: as §1, §2

A. baumannii LAC-4 = format: cell-based, Acinetobacter baumannii
Text: as §1, §2

E. coli ATCC 25922 = format: cell-based, Escherichia coli
Text: as §1, §2

E. coli 107115 = format: cell-based, Escherichia coli
Text: as §1, §2

E. coli CAN-ICU 61714 = format: cell-based, Escherichia coli
Text: as §1, §2

E. coli CAN-ICU 63074 = format: cell-based, Escherichia coli
Text: as §1, §2

CC(C)C[C@@H]1NC(=O)[C@@H](Cc2ccccc2)NC(=O)[C@H](CCN)NC(=O)[C@@H](NC(=O)[C@H](CCN)NC(=O)[C@@H](NC(=O)[C@H](CCNC(=O)c2ccc(-c3ccccc3)cc2)NC(=O)c2ccc(-c3ccccc3)cc2)[C@@H](C)O)CCNC(=O)[C@H]([C@@H](C)O)NC(=O)[C@H](CCN)NC(=O)[C@H](CCN)NC1=O [Compound 5, Dibiphenyl-4-Carboxylic Acid (Di-Biphenyl) Polymyxin] ({Benzoyl(4-Ph)}-[Dab](Benzoyl(4-Ph))T[Dab][Dab][Dab][dF]L[Dab][Dab]T; lactam 4-C)
MIC (E. faecalis ATCC 29212; E. faecalis ATCC 29212): 16 µg/mL (≈ 11.2 µM)
MIC (E. faecium ATCC 27270; E. faecium ATCC 27270): 8 µg/mL (≈ 5.62 µM)
MIC (S. pneumoniae ATCC 49619; S. pneumoniae ATCC 49619): 32 µg/mL (≈ 22.5 µM)
MIC (P. aeruginosa PA095; P. aeruginosa PA095): 4 µg/mL (≈ 2.81 µM)
MIC (P. aeruginosa PA101885; P. aeruginosa PA101885): 8 µg/mL (≈ 5.62 µM)
MIC ([1]; P. aeruginosa PA264-104354): 8 µg/mL (≈ 5.62 µM)
MIC (P. aeruginosa ATCC 27853; P. aeruginosa ATCC 27853): 32 µg/mL (≈ 22.5 µM)
MIC ([2]; P. aeruginosa CAN-ICU 62308): 16 µg/mL (≈ 11.2 µM)
MIC (P. aeruginosa PA100036; P. aeruginosa PA100036): 8 µg/mL (≈ 5.62 µM)
MIC ([3]; P. aeruginosa PA259-96918): 8 µg/mL (≈ 5.62 µM)
MIC ([4]; P. aeruginosa PA260-97103): 8 µg/mL (≈ 5.62 µM)
MIC (P. aeruginosa PAO1; P. aeruginosa PAO1 (wild type)): 8 µg/mL (≈ 5.62 µM)
MIC ([5]; P. aeruginosa PA262-101856): 8 µg/mL (≈ 5.62 µM)
MIC (K. pneumoniae 113254): >64 µg/mL
MIC (K. pneumoniae 113250): >64 µg/mL
MIC (MSSE CANWARD-2008 81388): 8 µg/mL (≈ 5.62 µM)
fold better MIC than colistin (MSSE CANWARD-2008 81388): 32 fold
MIC (E. coli 94474): 8 µg/mL (≈ 5.62 µM)
MIC (E. coli 94393): 16 µg/mL (≈ 11.2 µM)
MIC (A. baumannii 92247): 8 µg/mL (≈ 5.62 µM)
MIC (P. aeruginosa 101243): >128 µg/mL
MIC (P. aeruginosa 91433): 8 µg/mL (≈ 5.62 µM)
MIC (P. aeruginosa 114228): 16 µg/mL (≈ 11.2 µM)
MIC (MRSA ATCC 33592; MRSA ATCC 33592 (methicillin-resistant Staphylococcus aureus)): 16 µg/mL (≈ 11.2 µM)
fold better MIC than colistin (MRSA ATCC 33592): 32 fold
MIC (S. aureus ATCC 29213; S. aureus ATCC 29213): 8 µg/mL (≈ 5.62 µM)
MIC (A. baumannii AB027; A. baumannii AB027): 6 µg/mL (≈ 4.21 µM)
MIC (A. baumannii LAC-4; A. baumannii LAC-4): 16 µg/mL (≈ 11.2 µM)
MIC (E. coli ATCC 25922; E. coli ATCC 25922): 8 µg/mL (≈ 5.62 µM)
MIC (E. coli 107115; E. coli 107115): 4 µg/mL (≈ 2.81 µM)
MIC (E. coli CAN-ICU 61714; E. coli CAN-ICU 61714): 32 µg/mL (≈ 22.5 µM)
MIC (E. coli CAN-ICU 63074; E. coli CAN-ICU 63074): 32 µg/mL (≈ 22.5 µM)

CCCCCCCC(=O)NCC[C@H](NC(=O)CCCCCCC)C(=O)N[C@H](C(=O)N[C@@H](CCN)C(=O)N[C@H]1CCNC(=O)[C@H]([C@@H](C)O)NC(=O)[C@H](CCN)NC(=O)[C@H](CCN)NC(=O)[C@H](CC(C)C)NC(=O)[C@@H](Cc2ccccc2)NC(=O)[C@H](CCN)NC1=O)[C@@H](C)O [Compound 2, Dioctanoic Acid (Di-C8) Polymyxin] (Octanoyl-[Dab](Octanoyl)T[Dab][Dab][Dab][dF]L[Dab][Dab]T; lactam 4-C)
MIC (E. faecalis ATCC 29212; ATCC 29212): 32 µg/mL (≈ 24.3 µM)
MIC (E. faecium ATCC 27270; ATCC 27270): 16 µg/mL (≈ 12.2 µM)
MIC (S. pneumoniae ATCC 49619; ATCC 49619): 32 µg/mL (≈ 24.3 µM)
MIC (P. aeruginosa PA095; PA095): 2 µg/mL (≈ 1.52 µM)
MIC (P. aeruginosa PA101885; PA101885): 4 µg/mL (≈ 3.04 µM)
MIC ([1]; PA264-104354): 4 µg/mL (≈ 3.04 µM)
MIC (P. aeruginosa ATCC 27853; ATCC 27853): 8 µg/mL (≈ 6.08 µM)
MIC ([2]; CAN-ICU 62308): 8 µg/mL (≈ 6.08 µM)
MIC (P. aeruginosa PA100036; PA100036): 4 µg/mL (≈ 3.04 µM)
MIC ([3]; PA259-96918): 2 µg/mL (≈ 1.52 µM)
MIC ([4]; PA260-97103): 2 µg/mL (≈ 1.52 µM)
MIC (P. aeruginosa PAO1; PAO1): 4 µg/mL (≈ 3.04 µM)
MIC ([5]; PA262-101856): 8 µg/mL (≈ 6.08 µM)
MIC (K. pneumoniae 113254): >64 µg/mL
MIC (K. pneumoniae 113250): >64 µg/mL
MIC (MSSE CANWARD-2008 81388): 8 µg/mL (≈ 6.08 µM)
fold better MIC than colistin (MSSE CANWARD-2008 81388): 32 fold
MIC (E. coli 94474): 4 µg/mL (≈ 3.04 µM)
MIC (E. coli 94393): 4 µg/mL (≈ 3.04 µM)
MIC (A. baumannii 92247): 8 µg/mL (≈ 6.08 µM)
MIC (P. aeruginosa 101243): 32 µg/mL (≈ 24.3 µM)
MIC (P. aeruginosa 91433): 4 µg/mL (≈ 3.04 µM)
MIC (P. aeruginosa 114228): 4 µg/mL (≈ 3.04 µM)
MIC (MRSA ATCC 33592; ATCC 33592): 16 µg/mL (≈ 12.2 µM)
fold better MIC than colistin (MRSA ATCC 33592): 32 fold
MIC (S. aureus ATCC 29213; ATCC 29213): 16 µg/mL (≈ 12.2 µM)
MIC (A. baumannii AB027; AB027): 32 µg/mL (≈ 24.3 µM)
MIC (A. baumannii LAC-4; LAC-4): 16 µg/mL (≈ 12.2 µM)
MIC (E. coli ATCC 25922; ATCC 25922): 4 µg/mL (≈ 3.04 µM)
MIC (E. coli 107115; 107115): 2 µg/mL (≈ 1.52 µM)
MIC (E. coli CAN-ICU 61714; CAN-ICU 61714): 32 µg/mL (≈ 24.3 µM)
MIC (E. coli CAN-ICU 63074; CAN-ICU 63074): 64 µg/mL (≈ 48.6 µM)
